Laboratory results as given in article PMC12839014, “Machine Learning-Based Virtual Screening for the Identification of Novel CDK-9 Inhibitors” (Biomolecules, 2025).
Read-outs that look alike come from different tables or passages of the source. Values belong to the compound of their own block, whether it stands above or below them.

Key:
[1] = tested on: MCF-7 cells; experiment: Cell viability assay (SRB), MCF-7; assay type: cell-based; conditions: 72 h; for cell viability (antiproliferative effect): MCF-7, single agent, SRB
Protocol: (§1) HeLa, MCF-7, and MDA-MB-231 cells were seeded in triplicate into 96-well plates at densities of 1500, 3500, and 3000 cells per well, respectively, and allowed to adhere for 24 h. After 72 h of incubation, cells were fixed with 10% (v/v) trichloroacetic acid (TCA) and subsequently stained with 0.4% (w/v) sulforhodamine B (SRB) dissolved in 1% (v/v) acetic acid. Cell viability was quantified and expressed as a percentage relative to untreated control cells, which were normalized to 100%. Data represent the mean ± standard deviation (SD) from three independent experiments (n = 3). Statistical significance was determined using one-way ANOVA or Student’s t-test, followed by appropriate multiple-comparison post hoc tests to evaluate differences between experimental groups.

[2] = tested on: MDA-MB-231 cells; experiment: Cell viability assay (SRB), MDA-MB-231; assay type: cell-based; conditions: 72 h; for cell viability (antiproliferative effect): MDA-MB-231, single agent, SRB
Protocol: as §1

[3] = tested on: HeLa cells; experiment: Cell viability assay (SRB), HeLa; assay type: cell-based; conditions: 72 h; for cell viability (antiproliferative effect): single agent, SRB
Protocol: as §1

[4] = tested on: pRPA32 S4/8 in HeLa cells; experiment: Immunofluorescence analysis of pRPA32 S4/8 (HR activity); assay type: cell-based; conditions: 1 h pretreatment with compound 1 or DMSO, then 2 h CPT
Protocol: (§2) HeLa cells were fixed in 4% paraformaldehyde and subsequently permeabilized with 0.2% Triton X-100. Blocking was performed with 1% bovine serum albumin (BSA) for 10 min at room temperature. Cells were then incubated for 1 h at RT with primary antibodies targeting: γH2AX Ser139 (1:200, ab2893, Abcam, Cambridge, UK) or pRPA32 S4/8 (1:200, A300-245A, Bethyl Laboratories, Montgomery, TX, USA). Corresponding secondary antibody conjugated with AlexaFluor 647 donkey anti-rabbit IgG (H + L) was applied. Samples were mounted using ProLong™ Gold Antifade Mountant with DAPI (Thermo Fisher Scientific). High-resolution immunofluorescence imaging was performed on a Zeiss LSM 900 Airyscan2 confocal microscope equipped with a Plan-Apochromat 63×/1.4 NA oil immersion objective. Image acquisition and processing utilized Zen 3.9 software Zeiss, Jena, Germany). Quantification of fluorescent foci per nucleus was conducted using Fiji (ImageJ) software, version 2.14.0/1.54f.
Figure S4. A) HeLa cells were pre-treated with compound 1 (reported as Cmp 1) or DMSO for one hour, followed by incubation with CPT. Thirty cells per condition were analyzed from three independent experiments, with results reported as the standard deviation (SD). Statistical analysis was performed using Welch’s corrected Student’s t-test to account for heteroscedasticity in the data. […]

[5] = target: T1, CDK9/cyclin T1 (Homo sapiens, UniProt P50750); experiment: ADAPTA kinase assay (TR-FRET), CDK9 inhibition; assay type: biochemical; conditions: for IC50: CDK9 inhibitory activity
T1 construct: purchased Thermo Fisher Scientific, Madison, WI, USA
Protocol: The inhibitory activity of the compounds identified by the VS was evaluated against CDK9/cyclin T1 using the fluorescence-based ADAPTA kinase assay (Thermo Fisher Scientific, Madison, WI, USA). The assay quantifies ADP generated during the kinase reaction through a competitive immunoassay employing a TR-FRET detection system. In the presence of an inhibitor, ADP formation by the kinase is reduced, leading to preservation of the antibody–tracer complex and a corresponding increase in the TR-FRET signal. Inhibitory potency was expressed as IC50 values, determined from logistic dose–response curves with 10 concentration points, each representing the average of two independent experiments.

[6] = tested on: γH2AX Ser139 foci in HeLa cells; experiment: Immunofluorescence analysis of γ-H2AX foci; assay type: cell-based; conditions: 1 h pretreatment with compound 1, then 2 h CPT, combination vs CPT alone
Protocol: as §2
Figure S3. […] Thirty cells were evaluated per condition. Data are expressed as the mean ± standard deviation (SD) from three separate experiments. Statistical signiﬁcance was determined using Welch’s corrected Student’s t-test to account for potential variance diﬀerences between samples. **** p < 0.0001. […]

[7] = tested on: HeLa cells transfected with siCTR or siCDK9; experiment: Cell viability in HeLa cells with siRNA-mediated CDK9 knockdown; assay type: cell-based; conditions: 100 nM siCDK9 vs siCTR, 72 h treatment
Protocol: as §1
Consistently, when CDK9 is depleted, the overall impact of compound 1 is reduced.
Figure S2. HeLa cells were transfected with 100 nM of siCTR or siCDK9. After 24 hours of incubation, the cells were plated for the indicated treatment time points and incubated for an additional 24 hours, followed by treatment with the speciﬁed drug concentrations for another 72 hours. Results are presented as the mean ± SD from three independent experiments. *p< […], **p< 0.01, *** p < 0.001 and **** p < 0.0001.
(1 picture or pasted object on this page, not shown here)

[8] = 10 concentration points, average of two independent experiments, read-out: Experimental IC50

T1 sequence (P50750 whole entry): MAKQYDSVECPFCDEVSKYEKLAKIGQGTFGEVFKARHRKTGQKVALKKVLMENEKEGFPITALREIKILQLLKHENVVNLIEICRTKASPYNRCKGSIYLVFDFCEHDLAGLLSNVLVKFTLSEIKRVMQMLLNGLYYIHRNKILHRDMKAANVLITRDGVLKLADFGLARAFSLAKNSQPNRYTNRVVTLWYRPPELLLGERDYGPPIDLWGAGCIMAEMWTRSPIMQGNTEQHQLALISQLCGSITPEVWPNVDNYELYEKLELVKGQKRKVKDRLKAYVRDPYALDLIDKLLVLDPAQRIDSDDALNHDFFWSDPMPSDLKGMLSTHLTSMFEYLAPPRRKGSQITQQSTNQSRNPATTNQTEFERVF
T1 sequence (O60563 whole entry partner): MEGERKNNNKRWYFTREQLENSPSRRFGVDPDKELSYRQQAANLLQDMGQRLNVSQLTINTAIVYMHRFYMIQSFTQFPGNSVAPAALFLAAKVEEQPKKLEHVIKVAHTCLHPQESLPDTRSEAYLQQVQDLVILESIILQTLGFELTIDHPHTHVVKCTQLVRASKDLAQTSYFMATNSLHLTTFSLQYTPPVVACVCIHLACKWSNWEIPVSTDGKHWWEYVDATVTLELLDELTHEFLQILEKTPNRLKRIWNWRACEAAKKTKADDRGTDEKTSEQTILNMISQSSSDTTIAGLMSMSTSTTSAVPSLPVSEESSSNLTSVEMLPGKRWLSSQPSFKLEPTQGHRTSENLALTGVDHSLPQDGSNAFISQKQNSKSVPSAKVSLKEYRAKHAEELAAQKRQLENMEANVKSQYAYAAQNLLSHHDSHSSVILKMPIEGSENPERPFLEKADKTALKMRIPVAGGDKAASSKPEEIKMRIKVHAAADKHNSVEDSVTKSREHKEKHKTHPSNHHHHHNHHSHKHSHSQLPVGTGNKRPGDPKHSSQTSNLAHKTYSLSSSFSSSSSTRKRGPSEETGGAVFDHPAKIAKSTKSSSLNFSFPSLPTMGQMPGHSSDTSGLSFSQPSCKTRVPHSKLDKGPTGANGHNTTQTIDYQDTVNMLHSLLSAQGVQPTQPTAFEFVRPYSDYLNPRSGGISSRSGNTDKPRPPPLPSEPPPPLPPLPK

Structure (SMILES): CC[C@@]1(O)C(=O)OCc2c1cc1n(c2=O)Cc2cc3ccccc3nc2-1 [CPT, Camptothecin, reference compound]
cell viability (antiproliferative effect) [1]: detectable cytotoxic effect
cell viability (antiproliferative effect) [2]: detectable cytotoxic effect
cell viability (antiproliferative effect) [3]: detectable cytotoxic effect

Structure (SMILES): COc1ccccc1-c1ccnc(NC2CC3CCC(C2)N3C)n1 (centres unmarked) [Compound 1]
cell viability, combination with CPT ([1]; MCF-7, CPT fixed 5 nM + compound 1 1.85–30 µM): additive interaction
cell viability, combination with CPT ([1]; MCF-7, compound 1 fixed 7.5 µM + CPT 1.25–20 nM): potentiated the cytotoxic activity of CPT
cell viability (antiproliferative effect) [1]: stronger antiproliferative activity
pRPA32 S4/8 signal (HR activity) [4]: no significant changes in pRPA32 signal
IC50 [5, 8]: 3.51 µM
IC50 ([5]; read-out: IC50): < 50 µM
potency of compound 1 relative to compound 2 ([5]; in vitro enzymatic assays): five-fold
cell viability, combination with CPT ([2]; MDA-MB-231, CPT fixed 5 nM + compound 1 1.85–30 µM): additive interaction
cell viability, combination with CPT ([2]; MDA-MB-231, compound 1 fixed 7.5 µM + CPT 1.25–20 nM): potentiated the cytotoxic activity of CPT
cell viability (antiproliferative effect) [2]: stronger antiproliferative activity
DNA damage response (γ-H2AX foci) [6]: stronger DNA damage response
survival of CDK9-depleted cells vs control cells [7]: higher survival
cell viability, combination with CPT ([3]; CPT fixed 5 nM + compound 1 1.85–30 µM): additive interaction
cell viability, combination with CPT ([3]; compound 1 fixed 7.5 µM + CPT 1.25–20 nM): potentiated the cytotoxic activity of CPT
cell viability (antiproliferative effect) [3]: stronger antiproliferative activity

Structure (SMILES): COc1ccc(F)cc1-c1cc(N2CCN(S(=O)(=O)Cc3ccccc3)CC2)ncn1 [Compound 3]
IC50 [5, 8]: 28.6 µM
IC50 ([5]; read-out: IC50): < 50 µM

Structure (SMILES): Cc1nn(-c2ccc(F)cc2)c2nc(CCC(C)C)nc(N3CCN(C(=O)C4CC4c4ccccc4)CC3)c12 (centres unmarked) [Compound 4]
IC50 [5, 8]: 67.2 µM

Structure (SMILES): O=S(=O)(N1CCCC1)N1CCN(c2ncnc3scc(-c4ccc(F)cc4)c23)CC1 [Compound 6]
IC50 [5, 8]: 133 µM

Structure (SMILES): Cn1nc(C(=O)N2CCC(c3cc(O)nc(N4CCCC4)n3)C2)c2ccccc21 (centres unmarked) [Compound 9]
IC50 [5, 8]: > 133 µM

Structure (SMILES): Cc1cc(NC2CCN(c3ncccc3F)C2)nc(C)n1 (centres unmarked) [Compound 10]
IC50 [5, 8]: > 133 µM

Structure (SMILES): Nc1c2c(-c3ccccc3Cl)nc(N3CCCC3)nc2nn1-c1ccc(F)cc1 [Compound 12]
IC50 [5, 8]: > 133 µM

Structure (SMILES): CCC(Sc1nc2sc(C(=O)N(C)C)c(C)c2c(=O)n1CCc1ccccc1)C(=O)NC1CCCCC1 (centres unmarked) [Compound 13]
IC50 [5, 8]: > 133 µM

Further lines, with some results ahead:

IC50 [5, 8]: 16.8 µM
IC50 ([5]; read-out: IC50): < 50 µM
Structure (SMILES): CCOC(=O)c1sc(NC(=S)Nc2c(C)n(C)n(-c3ccccc3)c2=O)c(C(=O)OCC)c1C [Compound 2]
cell viability (antiproliferative effect) [1]: less effective at comparable concentrations
cell viability (antiproliferative effect) [2]: less effective at comparable concentrations
cell viability (antiproliferative effect) [3]: less effective at comparable concentrations

IC50 [5, 8]: 107 µM
Structure (SMILES): COc1cc2c(c3oc(=O)c(CCC(=O)NC4C=CS(=O)(=O)C4)c(C)c13)CCC(C)(C)O2 (centres unmarked) [Compound 5]

IC50 [5, 8]: > 133 µM
Structure (SMILES): Cc1cc(N2CCC3(NC(=O)c4cccc(C(C)C)n4)CCCC23)nc(CO)n1 (centres unmarked) [Compound 8]

IC50 [5, 8]: > 133 µM
Structure (SMILES): COc1ccc(OC)c(-c2cc(C(=O)NCC3CCN(c4ncccn4)CC3)n(C)n2)c1 [Compound 11]

IC50 [5, 8]: > 133 µM
Structure (SMILES): COC(=O)c1c(NC(=O)c2nn3c(C(F)(F)F)cc(-c4ccc(Br)cc4)nc3c2Cl)sc2c1CCCC2 [Compound 14]
